US20240251792A1, “WEED CONTROL METHOD” (SYNGENTA CROP PROTECTION AG, priority 2021, published 2024)
Read-outs that look alike come from different tables or passages of the source.

Tests used:
Type in all cases: in vivo
ABUTH = experiment: Pre-emergence biological efficacy (Table 3); conditions: Abutilon theophrasti, 312 h, after 13 days, read-out: evaluation (100=total damage to plant; 0=no damage to plant)
Method: (§1) Seeds of weeds and/or crops were sown in standard soil in pots. After cultivation for one day under controlled conditions in a glasshouse (at 24/19° C., day/night; 16 hours light), the plants were sprayed with an aqueous spray solution derived from the formulation of the technical active ingredient in a small amount of acetone and a special solvent and emulsifier mixture referred to as AMA (11.12% Emulsogen EL360 TM+44.44% N-methylpyrrolidone+44.44% Dowanol DPM glycol ether), to create a 50 g/l solution which was then diluted using 0.2% Genapol X080 as diluent to give the desired final dose of test compound.
(§2) The test plants were then grown under controlled conditions in the glasshouse (at 24/18° C., day/night; 15 hours light; 50% humidity) and watered twice daily. After 13 days the test was evaluated (100=total damage to plant; 0=no damage to plant).

IPOHE = experiment: Pre-emergence biological efficacy (Table 3); conditions: Ipomoea hederacea, 312 h, 1000 g/ha, after 13 days, read-out: evaluation (100=total damage to plant; 0=no damage to plant)
Method: as §1, §2

AMARE = experiment: Pre-emergence biological efficacy (Table 3); conditions: Amaranthus retroflexus, 312 h, 1000 g/ha, after 13 days, read-out: evaluation (100=total damage to plant; 0=no damage to plant)
Method: as §1, §2

STEME = experiment: Pre-emergence biological efficacy (Table 3); conditions: 312 h, after 13 days, read-out: evaluation (100=total damage to plant; 0=no damage to plant)
Method: as §1, §2

ZEAMX = experiment: Pre-emergence biological efficacy (Table 3); conditions: 312 h, 1000 g/ha, after 13 days, read-out: evaluation (100=total damage to plant; 0=no damage to plant)
Method: as §1, §2

weeds and/or crops = experiment: Post-emergence biological efficacy (Table 4); conditions: 312 h, 1000 g/ha, evaluated after 13 days
Method: as §1, with “14 days” for “one day”, “F50” for “AMA”
as §2

[1] = STEME, read-out: damage to plant STEME (100=total damage; 0=no damage)
[2] = ZEAMX, read-out: damage to plant ZEAMX (100=total damage; 0=no damage)
[3] = Amaranthus retroflexus, AMARE, read-out: damage to plant AMARE (100=total damage; 0=no damage)
[4] = Ipomoea hederacea, IPOHE, read-out: damage to plant IPOHE (100=total damage; 0=no damage)
[5] = Abutilon theophrasti, ABUTH, read-out: damage to plant ABUTH (100=total damage; 0=no damage)

| Compound | pest or weed control at 1000 g/ha (ABUTH) [%] | pest or weed control at 1000 g/ha (IPOHE) [%] | pest or weed control at 1000 g/ha (AMARE) [%] | pest or weed control at 1000 g/ha (STEME) [%] | plant injury at 1000 g/ha (ZEAMX) [%] | pest or weed control at 1000 g/ha (weeds and/or crops; [1]) [%] | pest or weed control at 1000 g/ha (weeds and/or crops; [2]) [%] | pest or weed control at 1000 g/ha (weeds and/or crops; [3]) [%] | pest or weed control at 1000 g/ha (weeds and/or crops; Echinochloa crus-galli, ECHCG, read-out: damage to plant ECHCG (100=total damage; 0=no damage)) [%] | pest or weed control at 1000 g/ha (weeds and/or crops; [4]) [%] | pest or weed control at 1000 g/ha (weeds and/or crops; [5]) [%] |
| --- | --- | --- | --- | --- | --- | --- | --- | --- | --- | --- | --- |
| Nc1cc(Cl)c(Cl)c(C(F)(F)C(=O)O)c1 [Compound 1-77, 3-[carboxy(difluoro)methyl]-4,5-dichloroanilinium] | 10 | 30 | 10 | 10 | 0 | 30 | 10 | 60 | 0 | 10 | – |
| CCc1cccc(C(F)(F)C(=O)O)c1Cl [Compound 1-196, 2-(2-Chloro-3-ethyl-phenyl)-2,2-difluoro-acetic acid] | 70 | 70 | 40 | 80 | 20 | 90 | 10 | 50 | – | 70 | 80 |
| C=Cc1cccc(C(F)(F)C(=O)O)c1Cl [Compound 1-207, 2-(2-Chloro-3-vinyl-phenyl)-2,2-difluoro-acetic acid] | 90 | 90 | 80 | 90 | 30 | 90 | 30 | 70 | – | 80 | 80 |
| C#Cc1cccc(C(F)(F)C(=O)O)c1Cl [Compound 1-208, 2-(2-Chloro-3-ethynyl-phenyl)-2,2-difluoro-acetic acid] | 100 | 90 | 90 | 100 | 80 | 90 | 70 | 90 | – | 90 | 90 |
| O=C(O)C(F)(F)c1cc(Cl)c(Cl)cc1O [Compound 1-298, 2-(4,5-Dichloro-2-hydroxy-phenyl)-2,2-difluoro-acetic acid] | 0 | 0 | 0 | 0 | 0 | 0 | 20 | 10 | – | 10 | 10 |
| CSc1c(C(F)(F)C(=O)O)ccc(Br)c1Cl [Compound 1-359, 2-(4-Bromo-3-chloro-2-methylsulfanyl-phenyl)-2,2-difluoro-acetic acid] | 0 | 0 | 10 | 0 | 10 | 0 | 20 | 10 | – | 10 | 10 |
| O=C(O)C(F)(F)c1cccc2cccnc12 [Compound 1-403, 2,2-Difluoro-2-(quinoline-8-yl)acetic acid] | 80 | 90 | 80 | 70 | 30 | 80 | 20 | 90 | – | 70 | 80 |
